# According to US20200247794A1, “PHARMACOPHORES, COMPOUNDS AND METHODS HAVING APPLICATION IN THE TREATMENT OF CANCER THROUGH INHIBITION OF CYP17A1 AND CYP19A1” (MANGOSUTHU UNIVERSITY OF TECHNOLOGY, priority 2015, published 2020):
# Like-named read-outs stand apart in the source and are kept apart here.
# How the values were obtained:
# CYP17A1 [1] = target: T1, CYP17A1 (Homo sapiens, UniProt P05093); conditions: cited from earlier work; for pIC50: −log IC50 (M), converted from literature IC50; for IC50: literature value, no unit in the table, nM
# T1 sequence (P05093 1-508): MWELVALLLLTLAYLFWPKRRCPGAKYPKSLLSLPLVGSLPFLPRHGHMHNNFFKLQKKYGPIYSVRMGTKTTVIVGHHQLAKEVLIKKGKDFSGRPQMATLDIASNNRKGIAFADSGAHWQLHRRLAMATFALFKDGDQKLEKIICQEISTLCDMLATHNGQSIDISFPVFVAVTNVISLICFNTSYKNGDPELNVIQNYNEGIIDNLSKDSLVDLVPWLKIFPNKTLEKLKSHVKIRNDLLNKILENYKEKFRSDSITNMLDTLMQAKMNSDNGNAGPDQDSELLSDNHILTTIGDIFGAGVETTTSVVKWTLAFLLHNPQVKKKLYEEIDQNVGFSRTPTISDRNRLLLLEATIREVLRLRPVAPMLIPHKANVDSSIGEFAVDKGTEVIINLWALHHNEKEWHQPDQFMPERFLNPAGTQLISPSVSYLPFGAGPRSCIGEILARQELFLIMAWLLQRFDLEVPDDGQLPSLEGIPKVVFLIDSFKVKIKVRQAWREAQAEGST
# CYP17A1 [2] = target: T1, CYP17A1; assay: CYP17A1 inhibition (CYP17A1 bactosomes, progesterone substrate, LC-MS/MS); assay type: biochemical; set-up: purchased Cypex, Dundee, UK; host or cells: bacterial membranes (bactosomes); conditions: for inhibitory potency of CYP17A1 (in words): summary of Table 2; for IC50: 20 pmol/ml bactosomes, 0.1 μM progesterone, 50 μM to 50 nM
# Experimental: CYP17A1 inhibition was measured using 20 pmol/ml CYP17A1 bactosomes (Cypex, Dundee, UK) and 0.1 μM progesterone as a substrate and 1 mM NADPH in 50 mM potassium phosphate buffer pH 7.4 containing 5 mM magnesium chloride. Inhibitors were dissolved in DMSO and serially diluted in seven ½ log steps, final concentrations ranging from 50 μM to 50 nM. Reaction volume was 100 μl and final DMSO concentration was 1% (v/v). Reactions were started by the addition of NADPH and incubated at 37° C. for 20 minutes with shaking at 1800 rpm on a Bioshake IQ (Q-Instruments, Jena, Germany). Reactions were terminated by the addition of 200 μl methanol containing 1 μM tolbutamide as an internal standard.
# CYP1A2 = target: T2, CYP1A2 (Homo sapiens, UniProt P05177); assay: CYP inhibition, 5 CYP bactosome mix: CYP1A2 (tacrine); assay type: in vitro ADME; conditions: tacrine 0.5 μM
# T2 construct: purchased Cypex, Dundee CYP/XG001, Batch XG001001; host or cells: E. coli
# T2 sequence (P05177 1-516): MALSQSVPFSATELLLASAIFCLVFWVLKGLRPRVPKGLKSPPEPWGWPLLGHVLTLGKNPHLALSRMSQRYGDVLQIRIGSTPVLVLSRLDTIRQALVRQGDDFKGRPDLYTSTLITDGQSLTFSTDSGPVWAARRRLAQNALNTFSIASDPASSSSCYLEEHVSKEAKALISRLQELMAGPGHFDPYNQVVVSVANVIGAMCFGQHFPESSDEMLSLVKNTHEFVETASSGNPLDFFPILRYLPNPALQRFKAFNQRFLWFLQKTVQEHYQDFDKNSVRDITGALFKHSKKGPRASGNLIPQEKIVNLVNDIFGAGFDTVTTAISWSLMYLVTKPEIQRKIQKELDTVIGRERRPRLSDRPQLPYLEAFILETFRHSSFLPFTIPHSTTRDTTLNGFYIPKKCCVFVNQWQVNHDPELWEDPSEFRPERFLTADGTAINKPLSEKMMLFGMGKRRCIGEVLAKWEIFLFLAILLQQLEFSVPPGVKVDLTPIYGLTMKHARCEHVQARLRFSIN
# Source text: (§1) CYP Inhibition Against Major 5 Human Liver CYPs in E. coli CYPEX Membranes
# The final DMSO concentration was 1%.
# CYP2C9 = target: T3, CYP2C9 (Homo sapiens, UniProt P11712); assay: CYP inhibition, 5 CYP bactosome mix: CYP2C9 (diclofenac); assay type: in vitro ADME; conditions: diclofenac 2 μM
# T3 construct: purchased Cypex, Dundee CYP/XG001, Batch XG001001; host or cells: E. coli
# Source text: as §1
# The final DMSO concentration was 1%.
# CYP2C19 = target: T4, CYP2C19 (Homo sapiens, UniProt P33261); assay: CYP inhibition, 5 CYP bactosome mix: CYP2C19 ((S)-mephenytoin); assay type: in vitro ADME; conditions: (S)-mephenytoin 40 μM
# T4 construct: purchased Cypex, Dundee CYP/XG001, Batch XG001001; host or cells: E. coli
# Source text: as §1
# The final DMSO concentration was 1%.
# CYP2D6 = target: T5, CYP2D6 (Homo sapiens, UniProt P10635); assay: CYP inhibition, 5 CYP bactosome mix: CYP2D6 (bufuralol); assay type: in vitro ADME; conditions: bufuralol 10 μM
# T5 construct: purchased Cypex, Dundee CYP/XG001, Batch XG001001; host or cells: E. coli
# Source text: as §1
# The final DMSO concentration was 1%.
# CYP3A4 = target: T6, CYP3A4 (Homo sapiens, UniProt P08684); assay: CYP inhibition, 5 CYP bactosome mix: CYP3A4 (midazolam); assay type: in vitro ADME; conditions: midazolam 2.5 μM
# T6 construct: purchased Cypex, Dundee CYP/XG001, Batch XG001001; host or cells: E. coli
# Source text: as §1
# The final DMSO concentration was 1%.
# [3] = tested on: CYP1A2, CYP2C9, CYP2C19, CYP2D6, and CYP3A4; assay: CYP inhibition against major 5 human liver CYPs (panel, summary in words); assay type: in vitro ADME; conditions: drug-drug interaction remark
# CYP19A1 = target: T7, CYP19A1 (Homo sapiens, UniProt P11511); assay: CYP19A1 inhibition (CYP19/MFC High Throughput Inhibitor Screen Kit, fluorescence); assay type: biochemical
# T7 sequence (P11511 1-503): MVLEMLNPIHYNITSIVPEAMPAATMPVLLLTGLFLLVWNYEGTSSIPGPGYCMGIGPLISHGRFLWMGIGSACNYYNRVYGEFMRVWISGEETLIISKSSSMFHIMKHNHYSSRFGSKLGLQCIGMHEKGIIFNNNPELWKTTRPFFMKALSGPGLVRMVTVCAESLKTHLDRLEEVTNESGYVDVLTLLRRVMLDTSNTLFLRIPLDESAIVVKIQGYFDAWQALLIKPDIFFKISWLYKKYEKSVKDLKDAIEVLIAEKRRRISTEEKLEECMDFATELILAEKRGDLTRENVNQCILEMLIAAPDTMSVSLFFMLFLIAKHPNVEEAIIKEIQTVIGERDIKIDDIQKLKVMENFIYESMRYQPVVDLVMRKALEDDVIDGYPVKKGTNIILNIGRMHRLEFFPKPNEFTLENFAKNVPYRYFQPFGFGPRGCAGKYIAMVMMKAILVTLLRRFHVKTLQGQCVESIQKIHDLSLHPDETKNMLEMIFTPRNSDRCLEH
# Experimental: Test compounds and control inhibitors were prepared as stocks in either Acetonitrile or DMSO from the solid compound. Compounds were serially diluted in ½ log steps in the same solvent.
# CYP19A1 inhibition experiments were performed using the CYP19/MFC High Throughput Inhibitor Screen Kit (Corning).
# CYP19A1 reactions were performed in black 96 well-plates (Greiner) according to the manufacturer's instructions. […] Final organic solvent concentrations were either 4% (v/v) acetonitrile or 0.5% (v/v) Dimethyl sulfoxide. The plates were covered with self-adhesive film lids and incubated for 10 minutes at 37° C. Reactions were terminated by the addition of 75 μl Stop Solution (100 mM Tris base in acetonitrile: MilliQ water (80:20).
# Fluorescence of 7-Hydroxy-4-trifluoromethylcoumarin (HFC) was measured on a SpectraMax® i3x (Molecular Devices) using 409 nm and 530 nm as excitation and emission wavelengths, respectively.
# The CYP activities for each test compound/positive control inhibitor at each concentration were converted to % of control activity (CA). The LC-MS/MS peak responses (CYP metabolite peak area/internal standard peak area) for each test compound or positive control inhibitor were used and the response for each sample was expressed as a percentage of an uninhibited control (DMSO incubation). The data were then expressed as (log(CA/100-CA) and used to generate a pseudo-Hill plot, the slope and y axis intercept are used to calculate the IC50-value according to the following equation.
# [4] = 7.5 pmol/ml CYP19A1, 25 μM MFC, top concentration 50 μM (acetonitrile) or 25 μM (DMSO), read-out: CYP19A1 IC50
# T5 sequence (P10635 whole entry): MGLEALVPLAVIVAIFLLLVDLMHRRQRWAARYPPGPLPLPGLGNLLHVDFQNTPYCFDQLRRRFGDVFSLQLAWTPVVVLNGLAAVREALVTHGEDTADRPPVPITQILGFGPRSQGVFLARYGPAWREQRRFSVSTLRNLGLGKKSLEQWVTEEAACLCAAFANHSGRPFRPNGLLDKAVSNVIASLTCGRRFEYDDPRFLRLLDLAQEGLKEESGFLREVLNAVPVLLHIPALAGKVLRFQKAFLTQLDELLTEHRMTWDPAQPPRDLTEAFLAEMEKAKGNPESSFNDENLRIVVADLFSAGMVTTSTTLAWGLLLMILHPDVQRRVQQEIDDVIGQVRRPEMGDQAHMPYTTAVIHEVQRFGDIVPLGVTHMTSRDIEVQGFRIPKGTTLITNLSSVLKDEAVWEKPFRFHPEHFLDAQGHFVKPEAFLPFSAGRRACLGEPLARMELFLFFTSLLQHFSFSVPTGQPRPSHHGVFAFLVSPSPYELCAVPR
# T6 sequence (P08684 whole entry): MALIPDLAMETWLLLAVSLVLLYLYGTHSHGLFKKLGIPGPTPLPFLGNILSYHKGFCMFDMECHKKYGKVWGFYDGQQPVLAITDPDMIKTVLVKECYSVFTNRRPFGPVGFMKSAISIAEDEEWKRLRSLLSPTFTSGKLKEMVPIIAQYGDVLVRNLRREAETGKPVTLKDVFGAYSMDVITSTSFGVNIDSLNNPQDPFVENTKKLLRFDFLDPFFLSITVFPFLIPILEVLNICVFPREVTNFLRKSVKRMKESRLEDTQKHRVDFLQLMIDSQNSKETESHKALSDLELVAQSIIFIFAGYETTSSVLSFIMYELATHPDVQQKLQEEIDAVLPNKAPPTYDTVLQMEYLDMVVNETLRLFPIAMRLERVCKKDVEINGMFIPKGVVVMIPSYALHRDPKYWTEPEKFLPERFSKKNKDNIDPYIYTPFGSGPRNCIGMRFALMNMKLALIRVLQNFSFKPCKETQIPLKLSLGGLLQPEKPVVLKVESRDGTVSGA
# T3 sequence (P11712 whole entry): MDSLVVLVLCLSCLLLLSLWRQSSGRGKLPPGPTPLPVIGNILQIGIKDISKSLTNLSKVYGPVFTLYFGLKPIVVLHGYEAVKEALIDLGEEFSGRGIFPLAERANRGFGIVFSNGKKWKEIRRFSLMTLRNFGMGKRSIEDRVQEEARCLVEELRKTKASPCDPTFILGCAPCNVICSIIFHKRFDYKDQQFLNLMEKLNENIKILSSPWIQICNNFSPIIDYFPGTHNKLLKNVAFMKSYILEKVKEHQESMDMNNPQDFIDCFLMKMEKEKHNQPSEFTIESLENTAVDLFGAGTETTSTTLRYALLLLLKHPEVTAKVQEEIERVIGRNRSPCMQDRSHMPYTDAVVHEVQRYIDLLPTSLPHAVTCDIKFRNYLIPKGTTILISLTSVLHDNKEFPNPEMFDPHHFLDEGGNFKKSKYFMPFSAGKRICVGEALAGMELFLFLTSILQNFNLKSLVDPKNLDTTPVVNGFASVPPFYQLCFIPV
# T4 sequence (P33261 whole entry): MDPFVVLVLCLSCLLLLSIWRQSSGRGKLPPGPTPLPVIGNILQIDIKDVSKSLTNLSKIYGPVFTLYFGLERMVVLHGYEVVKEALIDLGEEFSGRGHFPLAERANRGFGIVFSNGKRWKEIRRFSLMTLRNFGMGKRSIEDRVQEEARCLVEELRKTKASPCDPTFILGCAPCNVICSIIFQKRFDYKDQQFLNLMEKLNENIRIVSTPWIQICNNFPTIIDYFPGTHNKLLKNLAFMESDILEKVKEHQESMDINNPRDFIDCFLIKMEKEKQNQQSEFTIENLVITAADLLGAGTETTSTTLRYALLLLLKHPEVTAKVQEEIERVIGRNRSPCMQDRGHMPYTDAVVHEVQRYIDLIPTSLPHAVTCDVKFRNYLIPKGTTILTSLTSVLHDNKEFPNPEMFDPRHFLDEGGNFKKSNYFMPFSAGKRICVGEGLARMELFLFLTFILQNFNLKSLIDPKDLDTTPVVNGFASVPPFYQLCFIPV
SMILES,inhibitory potency of CYP17A1 (in words) (CYP17A1 [2]),IC50 (CYP1A2),IC50 (CYP2C9),IC50 (CYP2C19),IC50 (CYP2D6),IC50 (CYP3A4),inhibition of metabolic CYP450 isoforms (in words) [3],IC50 (CYP17A1 [2]),IC50 (CYP19A1; [4]),pIC50 (CYP17A1 [1]),IC50 (CYP17A1 [1]),IC50 (CYP19A1)
O=C(NC1CC1)c1ccc2cc(C3(O)CCn4cncc43)ccc2c1 (racemic) [5bx [7]],–,–,–,–,–,–,–,–,–,6.600,–,–
"CNC(=O)c1ccc2cc(C(O)(c3cnc[nH]3)C(C)C)ccc2c1 (stereo not shown) [1 [11], 6-[1-Hydroxy-1-isopropyl(1H-imidazol-5-yl)methyl]-Nmethylnaphthalene-2-carboxamide]",–,–,–,–,–,–,–,–,–,7.800,–,–
Brc1ccc(Cc2ccncc2)cc1 [3g [11]],–,–,–,–,–,–,–,–,–,6.400,–,–
"COc1ccc(-c2ccc(Cc3ccncc3)cc2)cc1OC [9a [9], 4-[(3′,4′-Dimethoxybiphenyl-4-yl)methyl]pyridine]",–,–,–,–,–,–,–,–,–,–,52 nM,–
Cl.Fc1ccc(-c2ccc3c(c2)CCC3c2cccnc2)cc1 (stereo not shown) [15 [13]],–,–,–,–,–,–,–,–,–,4.700,–,–
"CCc1ccc(NC(=O)c2cc(C(=O)c3cc(OC)ccc3O)coc2=N)cc1 [Compound 1, N-(4-ethylphenyl)-5-(2-hydroxy-5-methoxybenzoyl)-2-imino-2H-pyran-3-carboxamide]",micromolar levels,27.9 µM,6.1 µM,14.9 µM,36.3 µM,14.6 µM,inhibit various CYP450 isoforms,> 50 µM,–,–,–,–
"O=C(CSc1nnc(-c2c[nH]c3ccccc23)n1Cc1ccco1)NCc1ccccc1Cl [Compound 2, N-[(2-chlorophenyl)methyl]-2-({4-[(furan-2-yl)methyl]-5-(1H-indol-3-yl)-4H-1,2,4-triazol-3-yl}sulfanyl)acetamide]",micromolar levels,4.5 µM,1.8 µM,3.5 µM,8.1 µM,1.1 µM,inhibit various CYP450 isoforms,> 50 µM,–,–,–,–
"Cc1cccc(C(=O)OCCOc2ccc(S(N)(=O)=O)cc2)c1N [Compound 4, 2-(4-sulfamoylphenoxy)ethyl 2-amino-3-methylbenzoate]",–,–,16 µM,1.5 µM,–,3.3 µM,inhibit various CYP450 isoforms,–,–,–,–,43.5 µM
"O=C1COc2cc(NCc3cccc(C(=O)Nc4cccnc4)c3)c(O)cc2N1 [Compound 8, 3-{[(6-hydroxy-3-oxo-3,4-dihydro-2H-1,4-benzoxazin-7-yl)amino]methyl}-N-(pyridin-3-yl)benzamide]",–,2.7 µM,7.9 µM,44.6 µM,> 50 µM,2.8 µM,–,–,5.9 µM,–,–,–
"O=C1COc2cc(NCc3cccc(C(=O)Nc4cccnc4)c3)ccc2N1 [Compound 10, 3-{[(3-oxo-3,4-dihydro-2H-1,4-benzoxazin-7-yl)amino]methyl}-N-(pyridin-3-yl)benzamide]",micromolar levels,2.1 µM,> 50 µM,> 50 µM,> 50 µM,6.6 µM,–,> 50 µM,5.7 µM,–,–,–
"O=C1COc2cc(NCc3cccc(C(=O)Nc4cccnc4)c3)c(Cl)cc2N1 [Compound 13, 3-{[(6-chloro-3-oxo-3,4-dihydro-2H-1,4-benzoxazin-7-yl)amino]methyl}-N-(pyridin-3-yl)benzamide]",–,0.6 µM,–,> 50 µM,> 50 µM,1.1 µM,inhibit various CYP450 isoforms,> 50 µM,14.5 µM,–,–,–
"COc1cc2ccc([C@](O)(c3c[nH]cn3)C(C)C)cc2cc1OC [TAK700, [(1S)-1-(6,7-dimethoxy-2-naphthyl)-1-(1H-imidazol-4-yl)-2-methylpropan-1-ol]]",–,–,–,–,–,–,–,–,–,7.550,28 nM,–

# The next lines start with results.
inhibitory potency of CYP17A1 (in words) (CYP17A1 [2]),IC50 (CYP1A2),IC50 (CYP2C9),IC50 (CYP2C19),IC50 (CYP2D6),IC50 (CYP3A4),inhibition of metabolic CYP450 isoforms (in words) [3],IC50 (CYP17A1 [2]),IC50 (CYP19A1; [4]),SMILES,pIC50 (CYP17A1 [1]),IC50 (CYP17A1 [1]),IC50 (CYP19A1)
micromolar levels,–,–,–,–,–,–,–,–,"CCCC(=O)Nc1ccc(C(=O)C(C)OC(=O)c2n[nH]c3ccccc23)cc1 (racemic) [Compound 6, 1-(4-butanamidophenyl)-1-oxopropan-2-yl-1H-indazole-3-carboxylate]",–,–,–
–,> 50 µM,> 50 µM,> 50 µM,> 50 µM,> 50 µM,–,–,> 50 µM,"COC(C)C(=O)Nc1cccc(NC(C(N)=O)c2ccccc2)c1 (stereo not shown) [Compound 5, N-(3-{[carbamoyl(phenyl)methyl]amino}phenyl)-2-methoxypropanamide]",–,–,–
micromolar levels,> 50 µM,–,> 50 µM,> 50 µM,0.7 µM,–,–,> 25 µM,"O=C1COc2cc(NCc3cccc(NC(=O)c4ccccc4Cl)c3)c(Cl)cc2N1 [Compound 7, 2-chloro-N-(3-{[(6-chloro-3-oxo-3,4-dihydro-2H-1,4-benzoxazin-7-yl)amino]methyl}phenyl)benzamide]",–,–,–
micromolar levels,> 50 µM,> 50 µM,> 50 µM,> 50 µM,> 50 µM,–,> 50 µM,–,"O=C(Nc1ccccc1O)c1ccc(Oc2cccc(C(=O)Nc3ccccc3O)c2)cc1 [Compound 9, N-(2-hydroxyphenyl)-4-{3-[(2-hydroxyphenyl)carbamoyl]phenoxy}benzamide]",–,–,–
–,26.9 µM,4 µM,7.6 µM,2.7 µM,8.3 µM,inhibit various CYP450 isoforms,–,8.6 µM,"O=C1COc2cc(NCc3cccc(C(=O)Nc4ccccc4O)c3)ccc2N1 [Compound 11, N-(2-hydroxyphenyl)-3-{[(3-oxo-3,4-dihydro-2H-1,4-benzoxazin-7-yl)amino]methyl}benzamide]",–,–,–
